Patent US8362249B2, “CXCR3 receptor antagonists” (Boehringer Ingelheim International GmbH, priority 2009, dated 2013)

Biological target: CXCR3 (Macaca fascicularis, UniProt A0A2K5UV19)
Experiment: functional cellular assay measuring calcium flux in CXCR3 transfected cells (block of CXCR3/IP-10 interaction)
Type: cell-based
Settings: IP-10 induced intracellular calcium flux; Cyno-CHO cells stably expressing recombinant CXCR3 and G-alpha-16
How it was run: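 Cyno-CHO cells stably co-expressing recombinant CXCR3 and G-alpha-16, loaded with Ca-4 dye (HBSS, 10 mM HEPES pH 7.4, 2 mM probenecid) for 1 h at 37 °C. Compound (10 microM final) preincubated 15 min at room temperature, then IP-10 added at EC80. Intracellular calcium flux read by fluorescence (ex 480/em 540 nm).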

CXCR3, sequence (A0A2K5UV19 entry or part of it): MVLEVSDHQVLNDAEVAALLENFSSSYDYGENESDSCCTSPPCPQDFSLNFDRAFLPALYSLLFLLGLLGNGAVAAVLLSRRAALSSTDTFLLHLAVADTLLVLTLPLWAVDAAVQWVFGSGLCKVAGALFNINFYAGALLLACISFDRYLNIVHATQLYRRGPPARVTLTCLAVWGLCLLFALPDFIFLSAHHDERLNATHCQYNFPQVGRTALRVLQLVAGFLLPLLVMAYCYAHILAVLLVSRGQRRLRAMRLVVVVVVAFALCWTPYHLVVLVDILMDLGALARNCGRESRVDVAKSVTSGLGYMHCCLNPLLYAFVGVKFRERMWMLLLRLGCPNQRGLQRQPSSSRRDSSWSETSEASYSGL

`O=C(NCC(=O)N1CCN(c2ccccc2C(=O)Nc2cccnc2)CC1)c1ccc(OC(F)F)cc1` [4-Difluormethoxy-N-(2-oxo-2-{4-[2-(pyridin-3-ylcarbamoyl)-phenyl]-piperazin-1-yl}-ethyl)-benzamide] showed an IC50 of 18.3 nM.

Compound `COc1ccc(C(=O)NCC(=O)N2CCN(c3ccccc3C(=O)Nc3cccnc3)CC2)cc1C` [4-Methoxy-3-methyl-N-(2-oxo-2-{4-[2-(pyridin-3-ylcarbamoyl)-phenyl]-piperazin-1-yl}-ethyl)-benzamide] has an IC50 of 11 nM.

Compound `COc1ccc(C(=O)NCC(=O)N2CCN(c3ccccc3C(=O)Nc3cccnc3)CC2)cc1` [4-Methoxy-N-(2-oxo-2-{4-[2-(pyridin-3-ylcarbamoyl)-phenyl]-piperazin-1-yl}-ethyl)-benzamide] has an IC50 of 16 nM.

In the case of `COc1ccc(C(=O)NCC(=O)N2CCN(c3ccccc3C(=O)Nc3ccncc3)CC2)cc1` [4-Methoxy-N-(2-oxo-2-{4-[2-(pyridin-4-ylcarbamoyl)-phenyl]-piperazin-1-yl}-ethyl)-benzamide], the IC50 is reported as 3.4 nM.

With `COc1ccc(C(=O)N(C)CC(=O)N2CCN(c3ccccc3C(=O)Nc3ccncc3)CC2)cc1` [4-Methoxy-N-methyl-N-(2-oxo-2-{4-[2-(pyridin-4-ylcarbamoyl)-phenyl]-piperazin-1-yl}-ethyl)-benzamide] the IC50 was 15 nM.

With `Cc1cc(C)n(CC(=O)N2CCN(c3ccccc3NC(=O)c3cncc(Br)c3)CC2)n1` [5-Bromo-N-(2-{4-[2-(3,5-dimethyl-pyrazol-1-yl)-acetyl]-piperazin-1-yl}-phenyl)-nicotinamide] the IC50 was 5.7 nM.

With `CS(=O)(=O)c1ccc(NC(=O)c2ccccc2N2CCN(C(=O)Cn3c(C(=O)O)cc4cc(Cl)ccc43)CC2)cc1` [5-Chloro-1-(2-{4-[2-(4-methanesulfonyl-phenylcarbamoyl)-phenyl]-piperazin-1-yl}-2-oxo-ethyl)-1-H-indole-2-carboxylic acid] the IC50 was 25 nM.

In the case of `Cc1cc(C)n(CC(=O)N2CCN(c3ccc(Cl)cc3C(=O)Nc3nc4c(s3)CN(C)CC4)CC2)n1` [5-Chloro-2-{4-[2-(3,5-dimethyl-pyrazol-1-yl)-acetyl]-piperazin-1-yl}-N-(5-methyl-4,5,6,7-tetrahydro-thiazolo[5,4-c]pyridin-2-yl)-benzamide], the IC50 is reported as 15 nM.

`COc1cc(NC(=O)c2cc(F)ccc2N2CCN(C(=O)CN3CCCCC3=O)CC2)ccn1` [5-Fluoro-N-(2-methoxy-pyridin-4-yl)-2-{4-[2-(2-oxo-piperidin-1-yl)-acetyl]-piperazin-1-yl}-benzamide] gave an IC50 of 9 nM.

`CN1CCc2nc(NC(=O)c3cc(F)ccc3N3CCN(C(=O)CN4Cc5ccccc5C4=O)CC3)sc2C1` [5-Fluoro-N-(5-methyl-4,5,6,7-tetrahydro-thiazolo[5,4-c]pyridin-2-yl)-2-{4-[2-(1-oxo-1,3-dihydro-isoindol-2-yl)-acetyl]-piperazin-1-yl}-benzamide] showed an IC50 of 8.1 nM.

`COc1cc(NC(=O)c2ccccc2N2CCN(C(=O)CN(C)C(=O)c3ncoc3C)CC2)ccn1` [5-Methyl-oxazole-4-carboxylic acid (2-{4-[2-(2-methoxy-pyridin-4-ylcarbamoyl)-phenyl]-piperazin-1-yl}-2-oxo-ethyl)-methyl-amide] showed an IC50 of 5.5 nM.

`Cc1cc(C)n(CC(=O)N2CCN(c3ccccc3NC(=O)c3ccc(Cl)nc3)CC2)n1` [6-Chloro-N-(2-{4-[2-(3,5-dimethyl-pyrazol-1-yl)-acetyl]-piperazin-1-yl}-phenyl)-nicotinamide] showed an IC50 of 15 nM.

`O=C(NCC(=O)N1CCN(c2ccccc2C(=O)Nc2cccnc2)CC1)c1ccc2c(c1)OCO2` [Benzo[1,3]dioxole-5-carboxylic acid (2-oxo-2-{4-[2-(pyridin-3-ylcarbamoyl)-phenyl]-piperazin-1-yl}-ethyl)-amide] gave an IC50 of 13.3 nM.

Compound `Cc1cc(C)n(CC(=O)N2CCN(c3ccccc3C(=O)Nc3cnc4c(c3)c(C)nn4C)CC2)n1` [N-(1,3-Dimethyl-1H-pyrazolo[3,4-b]pyridin-5-yl)-2-{4-[2-(3,5-dimethyl-pyrazol-1-yl)-acetyl]-piperazin-1-yl}-benzamide] has an IC50 of 8.7 nM.

Compound `Cc1cc(C)n(CC(=O)N2CCN(c3ccccc3C(=O)Nc3cnc4c(c3)c(=O)n(C)c(=O)n4C)CC2)n1` [N-(1,3-Dimethyl-2,4-dioxo-1,2,3,4-tetrahydro-pyrido[2,3-d]pyrimidin-6-yl)-2-{4-[2-(3,5-dimethyl-pyrazol-1-yl)-acetyl]-piperazin-1-yl}-benzamide] has an IC50 of 11.5 nM.

With `Cc1cc(C)n(CC(=O)N2CCN(c3ccccc3C(=O)Nc3ccnc(Br)c3)CC2)n1` [N-(2-Bromo-pyridin-4-yl)-2-{4-[2-(3,5-dimethyl-pyrazol-1-yl)-acetyl]-piperazin-1-yl}-benzamide] the IC50 was 4.1 nM.

`Cc1cc(C)n(CC(=O)N2CCN(c3ccccc3C(=O)Nc3ccnc(Cl)c3)CC2)n1` [N-(2-Chloro-pyridin-4-yl)-2-{4-[2-(3,5-dimethyl-pyrazol-1-yl)-acetyl]-piperazin-1-yl}-benzamide] was tested, and the IC50 was 7.2 nM.

`COc1cc(NC(=O)c2ccccc2N2CCN(C(=O)CN3Cc4ccccc4C3=O)CC2)ccn1` [N-(2-Methoxy-pyridin-4-yl)-2-{4-[2-(1-oxo-1,3-dihydro-isoindol-2-yl)-acetyl]-piperazin-1-yl}-benzamide] showed an IC50 of 3.4 nM.

In the case of `COc1cc(NC(=O)c2ccccc2N2CCN(C(=O)CN3CCCCC3=O)CC2)ccn1` [N-(2-Methoxy-pyridin-4-yl)-2-{4-[2-(2-oxo-piperidin-1-yl)-acetyl]-piperazin-1-yl}-benzamide], the IC50 is reported as 4.4 nM.

Compound `COc1cc(NC(=O)c2ccccc2N2CCN(C(=O)CN3CCCCC3=O)[C@@H](C)C2)ccn1` [N-(2-Methoxy-pyridin-4-yl)-2-{(S)-3-methyl-4-[2-(2-oxo-piperidin-1-yl)-acetyl]-piperazin-1-yl}-benzamide] has an IC50 of 13 nM.

Work on `Cc1cc(C)n(CC(=O)N2CCN(c3ccccc3C(=O)Nc3ccnc(C(C)(C)C)c3)CC2)n1` [N-(2-tert-Butyl-pyridin-4-yl)-2-{4-[2-(3,5-dimethyl-pyrazol-1-yl)-acetyl]-piperazin-1-yl}-benzamide] yielded an IC50 of 8.5 nM.

For `Cc1cc(C)n(CC(=O)N2CCN(c3ccccc3NC(=O)c3cccc(C(F)(F)F)c3)CC2)n1` [N-(2-{4-[2-(3,5-Dimethyl-pyrazol-1-yl)-acetyl]-piperazin-1-yl}-phenyl)-3-trifluoromethyl-benzamide], the IC50 was 7.4 nM.

For `Cc1cc(C)n(CC(=O)N2CCN(c3ccccc3NC(=O)c3ccc(Oc4ccccc4)nc3)CC2)n1` [N-(2-{4-[2-(3,5-Dimethyl-pyrazol-1-yl)-acetyl]-piperazin-1-yl}-phenyl)-6-phenoxy-nicotinamide], the IC50 was 9.1 nM.

`Cc1cc(C)n(CC(=O)N2CCN(c3ccccc3NC(=O)c3ccccc3)CC2)n1` [N-(2-{4-[2-(3,5-Dimethyl-pyrazol-1-yl)-acetyl]-piperazin-1-yl}-phenyl)-benzamide] was tested, and the IC50 was 6.6 nM.

`Cc1cc(C)n(CC(=O)N2CCN(c3ccccc3NC(=O)c3ccncc3)CC2)n1` [N-(2-{4-[2-(3,5-Dimethyl-pyrazol-1-yl)-acetyl]-piperazin-1-yl}-phenyl)-isonicotinamide] was tested, and the IC50 was 7.6 nM.

In the case of `Cc1cc(C)n(CC(=O)N2CCN(c3ccccc3NC(=O)c3cccnc3)CC2)n1` [N-(2-{4-[2-(3,5-Dimethyl-pyrazol-1-yl)-acetyl]-piperazin-1-yl}-phenyl)-nicotinamide], the IC50 is reported as 15 nM.

`COc1ccc(C(=O)NCC(=O)N2CCN(c3ncc(Cl)cc3NC(=O)c3cccc(C(F)(F)F)c3)CC2)cc1OC` [N-(2-{4-[5-Chloro-3-(3-trifluoromethyl-benzoylamino)-pyridin-2-yl]-piperazin-1-yl}-2-oxo-ethyl)-3,4-dimethoxy-benzamide] gave an IC50 of 8.8 nM.
